How the values were obtained:
[1] = biological target: T1, ALDH1A1 (Homo sapiens, UniProt P00352); test: X-ray crystal structure at […] Å (complex with NAD and CM38); assay type: binding
T1 sequence (P00352 2-501): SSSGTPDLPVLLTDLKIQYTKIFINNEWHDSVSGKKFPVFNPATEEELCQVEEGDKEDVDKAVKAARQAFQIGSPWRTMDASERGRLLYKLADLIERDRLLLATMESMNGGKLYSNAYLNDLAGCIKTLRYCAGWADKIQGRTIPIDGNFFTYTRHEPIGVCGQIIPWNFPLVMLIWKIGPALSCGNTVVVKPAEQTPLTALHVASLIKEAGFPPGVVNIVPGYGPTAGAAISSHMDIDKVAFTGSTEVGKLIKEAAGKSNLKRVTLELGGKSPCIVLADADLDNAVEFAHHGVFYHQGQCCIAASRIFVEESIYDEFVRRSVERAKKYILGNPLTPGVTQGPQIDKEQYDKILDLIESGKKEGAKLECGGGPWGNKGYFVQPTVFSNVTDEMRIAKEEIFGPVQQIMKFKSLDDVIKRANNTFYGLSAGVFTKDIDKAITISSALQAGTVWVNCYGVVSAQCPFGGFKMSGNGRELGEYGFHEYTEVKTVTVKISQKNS

[2] = biological target: T2, ALDH1B1 (Homo sapiens, UniProt P30837); test: biochemical; set-up: NAD(P)H formation at 340 nm, purified recombinant ALDH isoenzymes; details: read-out: ALDH1B1 % activity versus control at 20 uM
T2 sequence (P30837 1-517): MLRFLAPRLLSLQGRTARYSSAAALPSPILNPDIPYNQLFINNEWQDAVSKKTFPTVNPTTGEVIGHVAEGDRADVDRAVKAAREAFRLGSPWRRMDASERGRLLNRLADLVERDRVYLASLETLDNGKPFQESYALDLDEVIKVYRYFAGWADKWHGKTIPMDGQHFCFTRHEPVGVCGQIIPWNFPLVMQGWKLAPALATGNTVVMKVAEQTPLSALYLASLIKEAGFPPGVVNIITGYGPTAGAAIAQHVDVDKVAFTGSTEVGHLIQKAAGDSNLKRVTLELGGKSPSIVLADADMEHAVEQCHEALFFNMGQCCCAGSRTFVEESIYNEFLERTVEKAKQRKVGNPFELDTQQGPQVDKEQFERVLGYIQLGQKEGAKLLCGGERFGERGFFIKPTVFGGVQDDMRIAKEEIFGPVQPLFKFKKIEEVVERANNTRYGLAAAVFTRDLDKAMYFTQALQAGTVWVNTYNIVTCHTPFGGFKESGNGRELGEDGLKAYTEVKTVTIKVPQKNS
Procedure: (§1) Human ALDH1A1, ALDH1A2, and ALDH1A3 were prepared and purified as previously described. The inhibition of ALDH activity by compounds and the IC50 curves were determined by measuring the formation of NAD(P)H spectrophotometrically at 340 nm (molar extinction coefficient of 6200 M^−1 cm^−1) on a Beckman DU-640 as well as a Spectramax 340 PC spectrophotometer (GMI, Ramsey, NJ, USA) using a purified recombinant enzyme. The reaction components for assays with ALDH1A enzymes consisted of 100–200 nM enzyme, 200 µM NAD+, 100 µM propionaldehyde, and 1% DMSO in 25 mM BES buffer at pH 7.5. All assays were performed at 25 °C and were initiated by the addition of substrate after a 2 min incubation period. The purification of and the reaction conditions for the other ALDH isoenzymes were as described in [27]. […] The data were fit to the four-parameter EC50 equation using SigmaPlot (v14), and the values represent the means/SEM of three independent experiments (n = 3). Figure S1. X-Ray Crystallography of CM38 with ALDH1A1 and characterization of inhibitor activ-ity (A). Structure of Human ALDH1A1 with bound compound CM38. […] (B). Inhibition of ALDH activity by compounds and IC50 curves were determined by measuring the formation of NAD(P)H spectro-photometrically at 340 nm using purified recombinant enzymes. (C). […]

[3] = biological target: T3, ALDH2 (Homo sapiens, UniProt P05091); test: biochemical; set-up: NAD(P)H formation at 340 nm, purified recombinant ALDH isoenzymes; details: read-out: ALDH2 % activity versus control at 20 uM
T3 sequence (P05091 1-517): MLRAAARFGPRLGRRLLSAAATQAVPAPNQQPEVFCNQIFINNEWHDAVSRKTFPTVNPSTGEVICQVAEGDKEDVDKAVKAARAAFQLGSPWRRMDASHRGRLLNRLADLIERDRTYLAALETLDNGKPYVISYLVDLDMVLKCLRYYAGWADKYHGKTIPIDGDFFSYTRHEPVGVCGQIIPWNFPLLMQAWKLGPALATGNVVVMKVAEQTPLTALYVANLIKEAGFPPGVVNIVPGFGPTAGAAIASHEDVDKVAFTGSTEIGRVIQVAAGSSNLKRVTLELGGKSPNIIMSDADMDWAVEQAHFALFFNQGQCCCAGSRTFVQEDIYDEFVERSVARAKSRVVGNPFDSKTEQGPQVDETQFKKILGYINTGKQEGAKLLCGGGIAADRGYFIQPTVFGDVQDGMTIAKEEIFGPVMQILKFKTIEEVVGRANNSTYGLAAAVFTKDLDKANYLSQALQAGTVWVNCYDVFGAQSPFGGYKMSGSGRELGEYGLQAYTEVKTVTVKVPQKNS
Procedure: as §1

[4] = biological target: T4, ALDH1A3 (Homo sapiens, UniProt P47895); test: biochemical; set-up: NAD(P)H formation at 340 nm, purified recombinant ALDH1A enzyme, propionaldehyde and NAD+; details: read-out: ALDH1A3 % activity versus control at 20 uM
T4 sequence (P47895 1-512): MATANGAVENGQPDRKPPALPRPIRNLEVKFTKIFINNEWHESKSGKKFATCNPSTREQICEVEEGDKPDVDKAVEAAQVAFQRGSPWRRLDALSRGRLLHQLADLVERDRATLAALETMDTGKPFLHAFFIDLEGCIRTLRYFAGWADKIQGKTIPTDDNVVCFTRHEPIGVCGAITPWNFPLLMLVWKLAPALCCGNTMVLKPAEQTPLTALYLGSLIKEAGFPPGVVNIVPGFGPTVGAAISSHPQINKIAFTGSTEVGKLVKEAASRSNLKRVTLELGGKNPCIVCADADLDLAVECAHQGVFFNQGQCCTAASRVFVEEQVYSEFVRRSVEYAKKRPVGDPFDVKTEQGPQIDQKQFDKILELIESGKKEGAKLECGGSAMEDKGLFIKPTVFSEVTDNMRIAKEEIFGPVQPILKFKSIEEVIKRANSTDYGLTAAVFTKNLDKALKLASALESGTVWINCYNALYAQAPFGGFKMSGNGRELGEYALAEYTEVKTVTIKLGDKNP
Procedure: as §1

[5] = biological target: T5, ALDH1A2 (Homo sapiens, UniProt O94788); test: biochemical; set-up: NAD(P)H formation at 340 nm, purified recombinant ALDH1A enzyme, propionaldehyde and NAD+; details: read-out: ALDH1A2 % activity versus control at 20 uM
T5 sequence (O94788 1-518): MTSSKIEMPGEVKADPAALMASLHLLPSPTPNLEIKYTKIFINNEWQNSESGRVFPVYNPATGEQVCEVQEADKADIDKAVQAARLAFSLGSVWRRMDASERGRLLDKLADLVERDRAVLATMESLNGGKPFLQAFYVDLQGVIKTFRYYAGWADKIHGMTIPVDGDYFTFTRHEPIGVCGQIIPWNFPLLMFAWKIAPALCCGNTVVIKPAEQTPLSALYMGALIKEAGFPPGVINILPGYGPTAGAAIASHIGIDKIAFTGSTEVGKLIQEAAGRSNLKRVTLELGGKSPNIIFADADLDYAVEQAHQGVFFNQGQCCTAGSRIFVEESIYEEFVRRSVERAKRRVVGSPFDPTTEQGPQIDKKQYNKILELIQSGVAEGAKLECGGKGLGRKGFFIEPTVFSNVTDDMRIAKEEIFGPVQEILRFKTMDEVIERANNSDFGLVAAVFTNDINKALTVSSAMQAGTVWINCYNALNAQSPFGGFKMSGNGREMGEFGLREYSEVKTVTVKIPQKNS
Procedure: as §1

[6] = biological target: T1, ALDH1A1; test: purified recombinant enzyme, NAD(P)H formation at […] nm with propionaldehyde as substrate; assay type: biochemical

SMILES	X-ray crystal structure at 1.8 Å (complex with NAD and CM38) [1]	remaining activity at 20 µM [2]	remaining activity at 20 µM [3]	remaining activity at 20 µM [4]	remaining activity at 20 µM [5]	IC50 [6]
NC(=O)c1ccc[n+]([C@@H]2O[C@H](COP(=O)([O-])OP(=O)(O)OC[C@H]3O[C@@H](n4cnc5c(N)ncnc54)[C@H](O)[C@@H]3O)[C@@H](O)[C@H]2O)c1 [NAD]	we determined the structure of ALDH1A1 in a complex with both NAD and CM38 by X-ray crystallography	–	–	–	–	–
Cc1c(C(=O)N2CCCCC2)oc2ccc3c(c12)C(=O)CC1(CCCCCC1)O3 [compound 974]	–	67 ± 3.9%	76 ± 20%	85 ± 4%	63 ± 4.2%	470 nM
